Data taken from the kinase profiling compilation of Christmann-Franck et al. (2016).
“And” between values parts separate entries of the source, which are not always exact repeats. Equal entries are not always repeated.

What was measured:
Experiment in all cases: KINOMEscan competition binding
Conditions in all cases: compound 10.0 µM
ACVR1 (human) = ACVR1 (human) (UniProt Q04771)
ADCK3 (human) = ADCK3 (human) (UniProt Q8NI60)
AKT2 (human) = AKT2 (human) (UniProt P31751)
CAMK1G (human) = CAMK1G (human) (UniProt Q96NX5)
CAMK2B (human) = CAMK2B (human) (UniProt Q13554)
CDK11B (human) = CDK11B (human) (UniProt P21127)
CDK17 (human) = CDK17 (human) (UniProt Q00537)
CDK4 CCND3 (human) = CDK4 CCND3 (human) (UniProt P11802+P30281)
CDK5 (human) = CDK5 (human) (UniProt Q00535)
CHEK1 (human) = CHEK1 (human) (UniProt O14757)
[1] = test system: EGFR (human), P00533 [A750P; 747-749 del]
EIF2AK1 (human) = EIF2AK1 (human) (UniProt Q9BQI3)
EPHB2 (human) = EPHB2 (human) (UniProt P29323)
FLT4 (human) = FLT4 (human) (UniProt P35916)
HIPK2 (human) = HIPK2 (human) (UniProt Q9H2X6)
INSR (human) = INSR (human) (UniProt P06213)
[2] = test system: KIT (human), P10721 [A829P]
LATS1 (human) = LATS1 (human) (UniProt O95835)
LIMK2 (human) = LIMK2 (human) (UniProt P53671)
MAP3K7 (human) = MAP3K7 (human) (UniProt O43318)
MAP3K9 (human) = MAP3K9 (human) (UniProt P80192)
MAPK14 (human) = MAPK14 (human) (UniProt Q16539)
MAPKAPK5 (human) = MAPKAPK5 (human) (UniProt Q8IW41)
MATK (human) = MATK (human) (UniProt P42679)
NEK11 (human) = NEK11 (human) (UniProt Q8NG66)
NEK3 (human) = NEK3 (human) (UniProt P51956)
NEK5 (human) = NEK5 (human) (UniProt Q6P3R8)
PAK2 (human) = PAK2 (human) (UniProt Q13177)
[3] = test system: PIK3CA (human), P42336 [M1043I]
PIP5K1A (human) = PIP5K1A (human) (UniProt Q99755)
PRKCE (human) = PRKCE (human) (UniProt Q02156)
PRKD3 (human) = PRKD3 (human) (UniProt O94806)
RET (human) = RET (human) (UniProt P07949)
ROCK1 (human) = ROCK1 (human) (UniProt Q13464)
RPS6KA3 KD1 (human) = RPS6KA3 KD1 (human) (UniProt P51812)
SGK3 (human) = SGK3 (human) (UniProt Q96BR1)
SIK2 (human) = SIK2 (human) (UniProt Q9H0K1)
SIK3 (human) = SIK3 (human) (UniProt Q9Y2K2)
STK39 (human) = STK39 (human) (UniProt Q9UEW8)
TEC (human) = TEC (human) (UniProt P42680)

SGK3 (human), sequence (Q96BR1 whole entry, looked up): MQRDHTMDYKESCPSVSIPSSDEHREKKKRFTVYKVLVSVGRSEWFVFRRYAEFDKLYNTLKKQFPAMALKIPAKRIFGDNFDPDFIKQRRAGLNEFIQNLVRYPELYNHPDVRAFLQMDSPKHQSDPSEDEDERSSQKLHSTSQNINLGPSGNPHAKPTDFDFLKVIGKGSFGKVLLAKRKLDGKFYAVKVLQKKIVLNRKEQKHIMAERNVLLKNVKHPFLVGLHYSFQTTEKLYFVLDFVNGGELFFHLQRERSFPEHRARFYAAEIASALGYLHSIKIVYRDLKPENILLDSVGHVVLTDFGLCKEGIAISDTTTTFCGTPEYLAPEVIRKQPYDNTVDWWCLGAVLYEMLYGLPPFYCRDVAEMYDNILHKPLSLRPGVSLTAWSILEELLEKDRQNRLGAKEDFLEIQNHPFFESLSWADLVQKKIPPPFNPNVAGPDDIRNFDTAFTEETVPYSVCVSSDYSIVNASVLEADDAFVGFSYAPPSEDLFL
HIPK2 (human), sequence (Q9H2X6 whole entry, looked up): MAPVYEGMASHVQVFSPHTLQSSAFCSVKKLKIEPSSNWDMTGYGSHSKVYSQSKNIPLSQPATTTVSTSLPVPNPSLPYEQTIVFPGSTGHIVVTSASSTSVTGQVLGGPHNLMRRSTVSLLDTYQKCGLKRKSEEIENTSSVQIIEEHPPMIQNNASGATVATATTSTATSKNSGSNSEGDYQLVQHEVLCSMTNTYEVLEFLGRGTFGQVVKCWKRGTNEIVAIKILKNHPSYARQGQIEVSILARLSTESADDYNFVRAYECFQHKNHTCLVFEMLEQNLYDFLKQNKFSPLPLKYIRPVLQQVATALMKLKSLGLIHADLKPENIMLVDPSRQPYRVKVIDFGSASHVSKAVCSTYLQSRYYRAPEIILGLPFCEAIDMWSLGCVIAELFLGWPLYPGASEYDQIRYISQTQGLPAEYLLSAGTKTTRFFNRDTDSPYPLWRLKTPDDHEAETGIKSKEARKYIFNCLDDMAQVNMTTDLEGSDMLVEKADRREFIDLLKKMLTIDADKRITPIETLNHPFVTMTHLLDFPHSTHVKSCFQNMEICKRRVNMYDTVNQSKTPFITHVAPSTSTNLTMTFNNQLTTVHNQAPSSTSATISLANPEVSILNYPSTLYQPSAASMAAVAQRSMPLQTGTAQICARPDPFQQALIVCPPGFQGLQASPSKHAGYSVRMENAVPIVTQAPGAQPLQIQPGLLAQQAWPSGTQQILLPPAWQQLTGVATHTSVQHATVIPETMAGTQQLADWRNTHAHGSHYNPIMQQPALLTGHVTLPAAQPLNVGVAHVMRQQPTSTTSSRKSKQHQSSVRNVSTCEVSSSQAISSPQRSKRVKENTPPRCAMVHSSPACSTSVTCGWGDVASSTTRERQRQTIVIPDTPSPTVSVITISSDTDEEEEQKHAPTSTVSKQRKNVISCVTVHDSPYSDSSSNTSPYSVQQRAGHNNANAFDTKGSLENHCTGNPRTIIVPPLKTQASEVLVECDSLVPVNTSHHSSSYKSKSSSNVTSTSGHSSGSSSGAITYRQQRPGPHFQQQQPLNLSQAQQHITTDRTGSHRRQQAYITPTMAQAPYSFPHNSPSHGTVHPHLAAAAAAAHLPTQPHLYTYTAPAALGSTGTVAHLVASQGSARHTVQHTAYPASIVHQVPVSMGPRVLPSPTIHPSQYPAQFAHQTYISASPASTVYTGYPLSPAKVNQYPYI
SIK3 (human), sequence (Q9Y2K2 whole entry, looked up): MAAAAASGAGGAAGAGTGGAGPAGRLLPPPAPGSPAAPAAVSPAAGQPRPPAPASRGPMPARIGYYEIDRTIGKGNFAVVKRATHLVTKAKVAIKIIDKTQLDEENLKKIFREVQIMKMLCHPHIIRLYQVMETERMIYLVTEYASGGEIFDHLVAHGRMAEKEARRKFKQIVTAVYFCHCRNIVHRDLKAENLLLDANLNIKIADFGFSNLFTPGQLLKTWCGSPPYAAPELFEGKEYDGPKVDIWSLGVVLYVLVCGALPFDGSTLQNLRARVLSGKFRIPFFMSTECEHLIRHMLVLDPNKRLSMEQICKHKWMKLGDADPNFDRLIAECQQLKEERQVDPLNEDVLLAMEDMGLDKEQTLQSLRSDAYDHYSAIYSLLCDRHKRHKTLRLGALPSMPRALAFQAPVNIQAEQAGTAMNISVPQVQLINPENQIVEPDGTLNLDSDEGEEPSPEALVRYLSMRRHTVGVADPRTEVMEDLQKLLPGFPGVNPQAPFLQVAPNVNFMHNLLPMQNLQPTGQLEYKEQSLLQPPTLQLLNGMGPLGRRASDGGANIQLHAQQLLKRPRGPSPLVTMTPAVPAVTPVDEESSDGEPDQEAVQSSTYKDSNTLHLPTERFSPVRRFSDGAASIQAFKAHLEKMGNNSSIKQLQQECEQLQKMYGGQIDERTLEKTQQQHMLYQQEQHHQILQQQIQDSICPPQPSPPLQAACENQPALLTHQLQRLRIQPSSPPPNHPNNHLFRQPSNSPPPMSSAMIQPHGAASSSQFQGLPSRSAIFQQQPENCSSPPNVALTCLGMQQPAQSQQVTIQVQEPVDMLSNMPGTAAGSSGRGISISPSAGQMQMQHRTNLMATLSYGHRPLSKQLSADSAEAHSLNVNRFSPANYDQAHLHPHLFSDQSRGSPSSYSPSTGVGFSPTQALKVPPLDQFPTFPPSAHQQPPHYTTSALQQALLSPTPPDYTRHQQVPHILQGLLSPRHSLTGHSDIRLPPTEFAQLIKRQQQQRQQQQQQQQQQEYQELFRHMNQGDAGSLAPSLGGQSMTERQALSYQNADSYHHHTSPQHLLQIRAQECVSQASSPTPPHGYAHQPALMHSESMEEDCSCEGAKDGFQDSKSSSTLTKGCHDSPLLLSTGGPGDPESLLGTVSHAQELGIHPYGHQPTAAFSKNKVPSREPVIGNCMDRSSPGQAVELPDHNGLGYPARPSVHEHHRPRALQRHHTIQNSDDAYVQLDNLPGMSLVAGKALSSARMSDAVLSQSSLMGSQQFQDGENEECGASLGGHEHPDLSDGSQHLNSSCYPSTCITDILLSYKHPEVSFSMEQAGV
PIP5K1A (human), sequence (Q99755 whole entry, looked up): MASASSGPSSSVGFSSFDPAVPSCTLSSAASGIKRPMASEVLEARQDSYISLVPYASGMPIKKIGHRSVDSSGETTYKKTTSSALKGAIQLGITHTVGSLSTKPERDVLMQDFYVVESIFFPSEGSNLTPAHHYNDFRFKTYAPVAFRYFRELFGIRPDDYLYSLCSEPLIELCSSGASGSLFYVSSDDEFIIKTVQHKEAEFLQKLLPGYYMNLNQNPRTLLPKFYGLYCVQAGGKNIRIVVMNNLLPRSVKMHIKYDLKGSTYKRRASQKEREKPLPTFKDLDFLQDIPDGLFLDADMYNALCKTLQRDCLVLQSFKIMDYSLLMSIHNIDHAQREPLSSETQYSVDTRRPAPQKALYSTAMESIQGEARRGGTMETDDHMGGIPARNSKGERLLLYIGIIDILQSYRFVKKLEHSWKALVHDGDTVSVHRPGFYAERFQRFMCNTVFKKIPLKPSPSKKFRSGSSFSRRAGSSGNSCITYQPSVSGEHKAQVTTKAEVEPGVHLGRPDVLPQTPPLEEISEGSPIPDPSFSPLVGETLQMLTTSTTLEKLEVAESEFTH
PIK3CA (human), P42336 [M1043I], sequence (P42336 whole entry M1043I, looked up): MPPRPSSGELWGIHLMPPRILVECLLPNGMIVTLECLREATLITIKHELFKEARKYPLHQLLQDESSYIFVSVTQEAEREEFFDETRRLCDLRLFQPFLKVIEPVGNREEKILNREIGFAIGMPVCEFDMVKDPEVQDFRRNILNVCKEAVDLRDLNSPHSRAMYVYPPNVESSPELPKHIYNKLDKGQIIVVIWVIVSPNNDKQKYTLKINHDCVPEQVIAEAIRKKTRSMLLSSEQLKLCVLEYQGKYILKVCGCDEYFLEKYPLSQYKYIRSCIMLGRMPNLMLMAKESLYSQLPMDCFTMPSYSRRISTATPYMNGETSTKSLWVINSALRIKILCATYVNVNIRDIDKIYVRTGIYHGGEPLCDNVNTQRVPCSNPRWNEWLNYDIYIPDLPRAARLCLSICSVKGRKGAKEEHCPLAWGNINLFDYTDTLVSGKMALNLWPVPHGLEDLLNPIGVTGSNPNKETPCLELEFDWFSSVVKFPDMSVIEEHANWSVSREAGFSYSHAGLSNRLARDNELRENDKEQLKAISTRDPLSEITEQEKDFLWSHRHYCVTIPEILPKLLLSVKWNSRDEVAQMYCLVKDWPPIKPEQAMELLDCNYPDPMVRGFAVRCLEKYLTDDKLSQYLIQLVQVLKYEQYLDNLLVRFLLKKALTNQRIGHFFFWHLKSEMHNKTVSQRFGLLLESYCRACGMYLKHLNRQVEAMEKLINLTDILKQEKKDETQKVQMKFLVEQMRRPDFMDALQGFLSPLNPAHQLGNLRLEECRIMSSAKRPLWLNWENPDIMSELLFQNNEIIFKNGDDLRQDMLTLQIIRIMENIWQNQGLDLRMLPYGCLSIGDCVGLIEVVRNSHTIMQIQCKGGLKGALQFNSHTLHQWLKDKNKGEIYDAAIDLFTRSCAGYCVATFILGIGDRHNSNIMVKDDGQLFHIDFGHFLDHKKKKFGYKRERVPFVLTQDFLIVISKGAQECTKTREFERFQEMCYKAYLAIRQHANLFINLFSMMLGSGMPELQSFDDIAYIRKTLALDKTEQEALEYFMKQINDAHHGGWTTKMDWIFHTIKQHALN
MAPK14 (human), sequence (Q16539 whole entry, looked up): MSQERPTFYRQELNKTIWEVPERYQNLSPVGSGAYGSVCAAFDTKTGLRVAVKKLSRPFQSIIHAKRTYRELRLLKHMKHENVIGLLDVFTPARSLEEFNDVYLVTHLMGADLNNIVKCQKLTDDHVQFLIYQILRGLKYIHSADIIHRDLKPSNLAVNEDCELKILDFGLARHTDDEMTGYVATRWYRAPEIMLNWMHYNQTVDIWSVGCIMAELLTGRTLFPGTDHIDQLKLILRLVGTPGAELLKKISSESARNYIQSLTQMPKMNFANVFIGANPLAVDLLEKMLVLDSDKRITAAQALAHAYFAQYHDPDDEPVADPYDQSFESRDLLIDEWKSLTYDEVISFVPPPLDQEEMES

Row | SMILES | kinase still bound, per cent of control (ACVR1 (human)) [%] | kinase still bound, per cent of control (ADCK3 (human)) [%] | kinase still bound, per cent of control (AKT2 (human)) [%] | kinase still bound, per cent of control (CAMK1G (human)) [%] | kinase still bound, per cent of control (CAMK2B (human)) [%] | kinase still bound, per cent of control (CDK11B (human)) [%] | kinase still bound, per cent of control (CDK17 (human)) [%] | kinase still bound, per cent of control (CDK4 CCND3 (human)) [%] | kinase still bound, per cent of control (CDK5 (human)) [%] | kinase still bound, per cent of control (CHEK1 (human)) [%] | kinase still bound, per cent of control [1] [%] | kinase still bound, per cent of control (EIF2AK1 (human)) [%] | kinase still bound, per cent of control (EPHB2 (human)) [%] | kinase still bound, per cent of control (FLT4 (human)) [%] | kinase still bound, per cent of control (HIPK2 (human)) [%] | kinase still bound, per cent of control (INSR (human)) [%] | kinase still bound, per cent of control [2] [%] | kinase still bound, per cent of control (LATS1 (human)) [%] | kinase still bound, per cent of control (LIMK2 (human)) [%] | kinase still bound, per cent of control (MAP3K7 (human)) [%] | also measured
1 | CC1=C(C(=O)Nc2cc3cn[nH]c3cc2F)C(c2ccc(C(F)(F)F)cc2)CC(=O)N1 (stereo not given) | 100 | 76 | 64 | 81 | 94 | 89 | 91 | 77 | 80 | 100 | 36 | 89 | 100 | 94 | 87 | 96 | 58 | 60 | 89 | 78 | kinase still bound, per cent of control (MAP3K9 (human)): 93%; kinase still bound, per cent of control (MAPK14 (human)): 100%; kinase still bound, per cent of control (MAPKAPK5 (human)): 100%; kinase still bound, per cent of control (MATK (human)): 68%; kinase still bound, per cent of control (NEK11 (human)): 100%; kinase still bound, per cent of control (NEK3 (human)): 100%; kinase still bound, per cent of control (NEK5 (human)): 90%; kinase still bound, per cent of control (PAK2 (human)): 88%; kinase still bound, per cent of control [3]: 93%; kinase still bound, per cent of control (PIP5K1A (human)): 89%; kinase still bound, per cent of control (PRKCE (human)): 100%; kinase still bound, per cent of control (PRKD3 (human)): 81%; kinase still bound, per cent of control (RET (human)): 20%; kinase still bound, per cent of control (ROCK1 (human)): 0.3%; kinase still bound, per cent of control (RPS6KA3 KD1 (human)): 53%; kinase still bound, per cent of control (SGK3 (human)): 100%; kinase still bound, per cent of control (SIK2 (human)): 99%; kinase still bound, per cent of control (SIK3 (human)): 94%; kinase still bound, per cent of control (STK39 (human)): 86%; kinase still bound, per cent of control (TEC (human)): 19%
2 | COc1cc2ncnc(Nc3cccc(Cl)c3)c2cc1OC | 74 | 56 | 100 | 64 | 95 | 86 | 79 | 93 | 100 | 100 | 1.4 | 65 | 67 | 79 | 80 | 62 | 27 | 100 | 100 | 39 | kinase still bound, per cent of control (MAP3K9 (human)): 86%; kinase still bound, per cent of control (MAPK14 (human)): 63%; kinase still bound, per cent of control (MAPKAPK5 (human)): 9.9%; kinase still bound, per cent of control (MATK (human)): 48%; kinase still bound, per cent of control (NEK11 (human)): 99%; kinase still bound, per cent of control (NEK3 (human)): 78%; kinase still bound, per cent of control (NEK5 (human)): 93%; kinase still bound, per cent of control (PAK2 (human)): 53%; kinase still bound, per cent of control [3]: 76%; kinase still bound, per cent of control (PIP5K1A (human)): 93%; kinase still bound, per cent of control (PRKCE (human)): 75%; kinase still bound, per cent of control (PRKD3 (human)): 88%; kinase still bound, per cent of control (RET (human)): 7%; kinase still bound, per cent of control (ROCK1 (human)): 41%; kinase still bound, per cent of control (RPS6KA3 KD1 (human)): 67%; kinase still bound, per cent of control (SGK3 (human)): 65% and 84%; kinase still bound, per cent of control (SIK2 (human)): 67%; kinase still bound, per cent of control (SIK3 (human)): 53%; kinase still bound, per cent of control (STK39 (human)): 57%; kinase still bound, per cent of control (TEC (human)): 100%
